Marks after values point to notes of the source that are not given here. Square brackets hold non-standard residues; d marks the D form. Ends that are not written are not given here. Hyp = O=C(O)[C@@H]1C[C@@H](O)CN1
Assays:
[1] = system: D93 binding to human denatured-collagen IV; assay: Competition ELISA: synthetic peptides blocking D93 binding to heat denatured collagen IV
Experimental: (§1) The ELISA was conducted as follows: wells of a 96-well microtiter plate (Immulon, 4 HBX flat-bottomed, Thermo Electron Corporation, Waltham, Mass.) were coated with 100 μL/well of dn-collagen IV at 10 μg/mL in Phosphate Buffered Saline (PBS) overnight at 4° C. The plate was washed 3 times (3×) with PBS containing 0.05% (v/v) Tween-20 (PBST) using an automated plate washer.
(§2) The plate was blocked by adding 300 μL/well of 1% BSA (w/v) in PBS for 1 hour at 25° C. followed by washing 3× in PBST as above.
(§3) Solutions of D93 or HUI77 were prepared with various concentrations of peptide or antibody inhibitor and incubate for 15 minutes. D93 or HUI77 was prepared at 200 ng/mL in 1% BSA/PBS.
(§4) For antibody blocking studies using synthetic peptides: peptide inhibitor stock solutions were prepared at 2 mM, 0.2 mM, 0.02 mM, and 0.002 mM in 1% BSA/PBS. 500 μL of a 2 mM peptide solution in 1% BSA/PBS was prepared and diluted 1:10 in 500 μL a total of three times to make peptide inhibitor concentrations.
(§5) 200 μL of D93 or HUI77 at 200 ng/mL solution was combined with 200 μL of peptide or antibody inhibitor solution and incubated for 15 minutes at room temperature.
(§6) D93 or HUI77 with various concentrations of inhibitors (2 mM, 0.2 mM, 0.02 mM, and 0.002 mM) were added to microplate wells and incubated for 1 hour at 25° C. The plate was washed 3× in PBST as above.
(§7) To each microtiter plate well, 100 μL of diluted anti-human IgG or anti-mouse IgM conjugated to horseradish peroxidase (HRP) in PBST was added and incubated for one hour at 25° C.: (a) for D93: Goat anti-human IgG-HRP (Jackson ImmunoResearch, Catalog No. 109-035-088) was used at 1:20,000 and (b) for HUI77: Goat anti-mouse IgM-HRP was used at 1:4,000. Plates were washed 3× in PBST as above.
(§8) Tetramethylbenzidine (TMB) substrate (100 μL; Pierce Chemicals)) was added to wells and the plates were allowed to develop at room temperature for 15 minutes in the dark. Substrate development was stopped by adding 50 μL/well of 2N H2SO4. The microtiter […] plates were read at 450 nm within five minutes of adding the H2SO4. Reactivity was measured with a microplate reader (Molecular Devices, Sunnyvale, Calif.) at a wavelength of 450 nm and analyzed using SOFTMax® PRO4.0 (Molecular Devices). All samples were tested in triplicate.
(§9) Individual peptides with amino acid substitutions and deletions were also synthesized based on the primary and secondary peptide arrays. […] The inhibitory activity of the individual peptides was tested by ELISA as previously described to measure binding of D93 or HUI77 to denatured collagen where peptides and antibodies were prepared at a 2× concentration and pre-incubated for 15 minutes prior to adding to microtiter plates coated with dn-collagen.
(§10) 96-well plates were coated with 100 μL/well of denatured (dn) collagen IV at 10 μg/mL in phosphate buffered saline (PBS) overnight at 4° C. followed by washing the plates in an automated plate washer 3 times in PBS containing 0.05% (v/v) Tween-20 (PBST). Non-specific binding was prevented by blocking the wells by adding 300 μL/well of 1% bovine serum albumin (BSA) (w/v) in PBS for 1 hour (hr) at 25° C. The plates were washed as above.
(§11) Solutions of D93 and HUI77 antibodies were prepared with various concentrations of inhibitor and incubated for 15 minutes. Briefly, 20 mLs of D93 or HUI77 were prepared at 200 ng/mL in 1% BSA/PBS. Solutions of peptide inhibitors (2 mM, 0.2 mM, […]) were prepared in 1% BSA/PBS. Equal volumes of antibodies and peptide inhibitors were combined: 200 μL of D93 or HUI77 (200 ng/mL solution) with 200 μL of each peptide solution.
(§12) 100 μL/well of D93 or HUI77 at 100 ng/mL with various concentrations of inhibitors were added to the wells in triplicate and incubated for 1 hour at 25° C. The plates were washed as described above.
(§13) 100 μL/well of secondary horseradish peroxidase (HRP)-conjugated antibody in PBST was added to each well and incubated for 1 hour (hr) at 25° C. […]

[2] = system: HUI77 binding to denatured collagen IV; assay: Competition ELISA: synthetic peptides blocking HUI77 binding to heat denatured collagen IV; parameters: species or system human
Experimental: as §1, §2, §3, §4, §5, §6, §7, §8, §9, §10, §11, §12, §13

[3] = peptide inhibitor concentration 1 μM, average of two studies, vs 1% BSA/PBS alone
[4] = peptide inhibitor concentration 10 μM, average of two studies, vs 1% BSA/PBS alone
[5] = peptide inhibitor concentration 100 μM, average of two studies, vs 1% BSA/PBS alone
[6] = peptide inhibitor concentration 1000 μM, average of two studies, vs 1% BSA/PBS alone
[7] = peptide inhibitor concentration 10 μM, average of two studies
[8] = peptide inhibitor concentration 100 μM, average of two studies
[9] = peptide inhibitor concentration 1000 μM, average of two studies
[10] = peptide inhibitor concentration 10 μM, asterisk (*): data from a separate assay
[11] = peptide inhibitor concentration 100 μM, asterisk (*): data from a separate assay
[12] = peptide inhibitor concentration 1000 μM, asterisk (*): data from a separate assay

Substance	% INHIBITION OF BINDING OF D93 TO HUMAN DENATURED-COLLAGEN IV [1, 3] [%]	% INHIBITION OF BINDING OF D93 TO HUMAN DENATURED-COLLAGEN IV [1, 4]	% INHIBITION OF BINDING OF D93 TO HUMAN DENATURED-COLLAGEN IV [1, 5] [%]	% INHIBITION OF BINDING OF D93 TO HUMAN DENATURED-COLLAGEN IV [1, 6] [%]	% INHIBITION OF BINDING OF HUI77 TO DENATURED COLLAGEN IV [2, 7] [%]	% INHIBITION OF BINDING OF HUI77 TO DENATURED COLLAGEN IV [2, 8] [%]	% INHIBITION OF BINDING OF HUI77 TO DENATURED COLLAGEN IV [2, 9] [%]	further results
GPPGPPG (GPXGPXG; MOD_RES (3) Hydroxyproline; MOD_RES (6) Hydroxyproline) [SEQ ID NO: 32]								% INHIBITION OF BINDING OF D93 TO HUMAN DENATURED-COLLAGEN IV ([1]; peptide inhibitor concentration 1 μM, average of two studies, vs 1% BSA/PBS alone, listed as 15 (32), 1 µM): 8%; % INHIBITION OF BINDING OF D93 TO HUMAN DENATURED-COLLAGEN IV ([1]; peptide inhibitor concentration 10 μM, average of two studies, vs 1% BSA/PBS alone, listed as 15 (32), 10 µM): 17%; % INHIBITION OF BINDING OF D93 TO HUMAN DENATURED-COLLAGEN IV ([1]; peptide inhibitor concentration 100 μM, average of two studies, vs 1% BSA/PBS alone, listed as 15 (32), 100 µM): 64%; % INHIBITION OF BINDING OF D93 TO HUMAN DENATURED-COLLAGEN IV ([1]; peptide inhibitor concentration 1000 μM, average of two studies, vs 1% BSA/PBS alone, listed as 15 (32), 1000 µM): 92.5%; % INHIBITION OF BINDING OF HUI77 TO DENATURED COLLAGEN IV ([2]; peptide inhibitor concentration 10 μM, average of two studies, listed as 15 (32), 10 µM): 6%; % INHIBITION OF BINDING OF HUI77 TO DENATURED COLLAGEN IV ([2]; peptide inhibitor concentration 100 μM, average of two studies, listed as 15 (32), 100 µM): 7.5%; % INHIBITION OF BINDING OF HUI77 TO DENATURED COLLAGEN IV ([2]; peptide inhibitor concentration 1000 μM, average of two studies, listed as 15 (32), 1000 µM): 77%
PGPPGPPGPY (PGP[Hyp]GP[Hyp]GPY) [SEQ ID NO: 28]	33.5	83%	93.5	93.5	7	16	86.5	
LPGPPGPPG (LPGP[Hyp]GP[Hyp]G) [SEQ ID NO: 21]					6.5			% INHIBITION OF BINDING OF D93 TO HUMAN DENATURED-COLLAGEN IV ([1]; peptide inhibitor concentration 1 μM, average of two studies, vs 1% BSA/PBS alone, listed as 20 (21), 1 µM): 13%; % INHIBITION OF BINDING OF D93 TO HUMAN DENATURED-COLLAGEN IV ([1]; peptide inhibitor concentration 10 μM, average of two studies, vs 1% BSA/PBS alone, listed as 20 (21), 10 µM): 35.5%; % INHIBITION OF BINDING OF D93 TO HUMAN DENATURED-COLLAGEN IV ([1]; peptide inhibitor concentration 100 μM, average of two studies, vs 1% BSA/PBS alone, listed as 20 (21), 100 µM): 85.5%; % INHIBITION OF BINDING OF D93 TO HUMAN DENATURED-COLLAGEN IV ([1]; peptide inhibitor concentration 1000 μM, average of two studies, vs 1% BSA/PBS alone, listed as 20 (21), 1000 µM): 92.5%; % INHIBITION OF BINDING OF HUI77 TO DENATURED COLLAGEN IV ([2]; peptide inhibitor concentration 100 μM, average of two studies, listed as 20 (21), 100 µM): 18%; % INHIBITION OF BINDING OF HUI77 TO DENATURED COLLAGEN IV ([2]; peptide inhibitor concentration 1000 μM, average of two studies, listed as 20 (21), 1000 µM): 86%
LPGFPG [SEQ ID NO: 38, reference compound]								% INHIBITION OF BINDING OF D93 TO HUMAN DENATURED-COLLAGEN IV ([1]; peptide inhibitor concentration 1 μM, asterisk (*): data from a separate assay): 5.4* %; % INHIBITION OF BINDING OF D93 TO HUMAN DENATURED-COLLAGEN IV [1, 10]: 7.8* %; % INHIBITION OF BINDING OF D93 TO HUMAN DENATURED-COLLAGEN IV [1, 11]: 8.3* %; % INHIBITION OF BINDING OF D93 TO HUMAN DENATURED-COLLAGEN IV [1, 12]: 11.6* %; % INHIBITION OF BINDING OF HUI77 TO DENATURED COLLAGEN IV [2, 10]: 10.2* %; % INHIBITION OF BINDING OF HUI77 TO DENATURED COLLAGEN IV [2, 11]: 0* %; % INHIBITION OF BINDING OF HUI77 TO DENATURED COLLAGEN IV [2, 12]: 3.7* %
G-P-Hyp-G-P-Hyp-G-P-Y (GP[Hyp]GP[Hyp]GPY) [SEQ ID NO: 30]	33	82.5, %	94	94	8.5	12	78	% INHIBITION OF BINDING OF D93 TO HUMAN DENATURED-COLLAGEN IV [1, 10]: 79.9* %; % INHIBITION OF BINDING OF D93 TO HUMAN DENATURED-COLLAGEN IV [1, 11]: 90.3%; % INHIBITION OF BINDING OF HUI77 TO DENATURED COLLAGEN IV [2, 11]: 0%; % INHIBITION OF BINDING OF HUI77 TO DENATURED COLLAGEN IV [2, 12]: 63%
F-Hyp-G-P-Hyp-G-P-D-G-L-P-G-S-M-G-P-Hyp-G (F[Hyp]GP[Hyp]GPDGLPGSMGP[Hyp]G) [SEQ ID NO: 36]	11	43%	89.5	93.5	4.5	9	62	
L-Hyp-G-P-Hyp-G (L[Hyp]GP[Hyp]G) [SEQ ID NO: 24]	6.5	12%	52.5	90	3	8	64	
PGAKGLPGP ([Hyp]GAKGLPGP) [SEQ ID NO: 17]	11	6%	4	11.5	8	10.5	10	
G-P-Hyp-G (GP[Hyp]G) [SEQ ID NO: 34]	9.5	6.5%	11	52	6.5	9	14	
LPGPPGPPGP (LPGP[Hyp]GP[Hyp]GP) [SEQ ID NO: 20]	12	41.5%	89	92.5	10	14	73	
Hyp-G-A-K-G-L-P-G-P-Hyp-G-P-Hyp-G-P-Y [SEQ ID NO: 2]	30	81%	93.5	93.5	7.5	18		% INHIBITION OF BINDING OF HUI77 TO DENATURED COLLAGEN IV ([2]; peptide inhibitor concentration 1000 μM, average of two studies, 1000 µM): 86%; % INHIBITION OF BINDING OF HUI77 TO DENATURED COLLAGEN IV ([2]; peptide inhibitor concentration 1000 μM, average of two studies, listed as 12 (2), 1000 µM): 86.5%
